Measured values from patent US6559158B1, “Use of methylnaltrexone and related compounds to treat chronic opioid use side affects” (UR Labs, Inc., priority 1997, dated 2003).

Key:
[1] = Example 3: plasma level after oral methylnaltrexone
Experimental: (§1) Since oral medication is a safer and more convenient way to deliver drugs than is intravenous administration, the efficacy of oral MNTX in relieving constipation in methadone maintained patients was evaluated. Twelve constipated adults (≦2 stool/week) were enrolled. Their daily methadone dose was 73.3±16.2 mg (41-100 mg), mean±SD (range). On day 1 at 9AM, subjects ingested 10 g lactulose (Solvay Pharmaceuticals) to assess oral-cecal transit time as described above, and a placebo capsule. On day 2 at 9AM, subjects again received lactulose, and a capsule containing methylnaltrexone (Mallinckrodt). Ascending oral methylnaltrexone doses (0.3, 1.0, and 3,0 mg/kg) were given to 3 groups of 4 subjects per group. Drug administrations were single-blinded to the subject. Laxation response and potential opioid withdrawal were recorded and blood samples were collected.

[2] = tested on: chronic methadone subjects; assay: Example 1: oral-cecal transit time (lactulose hydrogen breath test); format: in vivo, human; details: 150 min after placebo
Experimental: (§2) Vital signs were obtained at 0, 5, 10, 30, 60, 90 and 120 min after each test drug administration. For oral-cecal transit time measurement, 10 g lactulose (Solvay Pharmaceuticals, Marietta, Ga.) was administered orally at 09:00 h of Day 1, Day 5 and Day 8 for Subject 1; of Day 1 for Subject 2, and of Day 1, Day 3 and Day 5 for Subjects 3 and 4. Illicit drug use was monitored by random urine drug screens.
The oral-cecal transit time was assessed by the pulmonary hydrogen (H2) measurement technique, which measures pulmonary H2 that is produced when unabsorbed lactulose is fermented by colonic bacteria and excreted in the breath. This H2 production is reflected by a concomitant increase in breath H2 excretion. […] Dis. Sci., 32:829-832 (1987)). Hydrogen breath tests were conducted every 15 min until oral-cecal transit time was determined.

[3] = tested on: chronic methadone subjects with methadone-induced constipation; assay: Example 1: intravenous methylnaltrexone, laxation response and stool frequency in methadone maintenance subjects; format: in vivo, human; details: for Stool frequency Methylnaltrexone (per day): during iv methylnaltrexone treatment
Experimental: Methylnaltrexone dose of 0.45 mg/kg was chosen to start this trial because this dose was previously given in normal volunteers and prevented opioid-induced delay of the oral-cecal transit time without any side effects (Yuan et al., Clin. Pharmacol Ther., 59:469-475 (1996)). Drug administration was performed single blind to the subjects in this pilot study. Thus, methylnaltrexone dose could be adjusted based on subjects' clinical response during the study.
All four subjects received placebo (normal saline) on Day 1. Thereafter, subjects received intravenous methylnaltrexone until the end of the study.
On Day 2 at 09:00 hours (h), Subjects 1 and 2 were given 0.45 mg/kg intravenous methylnaltrexone over 1 min. Subject 2 experienced severe abdominal cramps after receiving the compound and was withdrawn from the study. […] Beginning on Day 4, the study was resumed for Subject 1 using 0.45 mg/kg of methylnaltrexone, diluted with 50 ml normal saline and administered over 30 min. Infusion could be stopped at any time for complaints of abdominal pain.
For Subjects 3 and 4, the study was shortened from 8 to 5 days, methylnaltrexone dosage was decreased, and a new, three-step dosing procedure was established. Methylnaltrexone 0.05 mg/kg, mixed in 30 ml normal saline (first syringe), was infused intravenously over 10 min. The subject was then observed 10 min for drug response. If there was no response, then methylnaltrexone 0.1 mg/kg (second syringe), mixed in 30 ml normal saline, was infused over 15 min. Subject was observed 15 min for drug response. If there was no response, then methylnaltrexone 0.3 mg/kg (third syringe), mixed in 30 ml normal saline, was infused over 15 min.
(§3) After each test drug administration, seven blood samples (5 ml each) were obtained at time 0, 5, 30 min, and 1, 2, 4, 8 h, and three urine samples were collected at time 0, 2, and 4 h. Plasma and urine methylnaltrexone levels were determined by an HPLC technique with a detection limit of 2 ng/ml (Kim et al., 1989; Yuan et al., Clin. Pharmacol Ther., 59:469-475 (1996); both herein incorporated by reference). […] Subjects' bowel movements were witnessed and recorded by a research nurse.

[4] = Absorption after oral administration of non-enteric coated compound; format: in vivo
Experimental: Methylnaltrexone is rapidly absorbed after oral administration from the stomach and bowel. Initial plasma levels of the drug are seen within 5-10 minutes of the administration of non-enteric coated compound. Addition of an enteric coating which prevents gastric absorption is associated with lower plasma levels of the methylnaltrexone.

[5] = tested on: chronic methadone subjects; assay: Example 1: side effects, abdominal cramping and central opioid withdrawal; format: in vivo, human
Experimental: as §2
To evaluate possible opioid withdrawal with methylnaltrexone, subjects were asked to rate on a 5-point scale from 0 (not at all) to 4 (extremely) an […] checklist Withdrawal Scale (Fraser et al., J Pharmacol Exp. Ther., 133:371-387 (1961); Jasinski, Drug Addiction J., 197-258 (1977); both herein incorporated by reference). Items to be rated were: muscle cramps, flushing, painful joints, yawning, restless, watery eyes, runny nose, chills or gooseflesh, sick to stomach, sneezing, abdominal cramps, irritable, backache, tense and jittery, sweating, depressed/sad, sleepy, shaky (hands), hot or cold flashes, and bothered by noises. The ratings for individual items were summed for a total score for each scale. The total scores were compared before and after methylnaltrexone administration to see if there was a significant difference.

[6] = Example 2: plasma levels and urinary excretion of methylnaltrexone; format: in vivo, human; details: for Peak plasma level: iv, mean±SD
Experimental: as §3
Blood and Urine Sampling and Analysis were Performed as in Example 1.

[7] = tested on: constipated methadone maintained patients; assay: Example 3: oral methylnaltrexone, laxation response; format: in vivo, human; details: for subjects who had a bowel movement: 4 subjects; for time to bowel movement after oral compound: mean±SD
Experimental: as §1

[8] = Subjects 3 and 4, 0.05-0.15 mg/kg iv twice daily, 4 days
[9] = iv methylnaltrexone, #1 0.45 mg/kg bid, #2 0.45 mg/kg, #3 and #4 0.05-0.15 mg/kg bid, iv methylnaltrexone 0.45 mg/kg
[10] = iv methylnaltrexone, #1 0.45 mg/kg bid, #2 0.45 mg/kg, #3 and #4 0.05-0.15 mg/kg bid, iv methylnaltrexone 0.05-0.15, bid mg/kg
[11] = iv methylnaltrexone, #1 0.45 mg/kg bid, #2 0.45 mg/kg, #3 and #4 0.05-0.15 mg/kg bid, iv methylnaltrexone 0.05-015, bid mg/kg
[12] = iv methylnaltrexone, #1 0.45 mg/kg bid, #2 0.45 mg/kg, #3 and #4 0.05-0.15 mg/kg bid, iv methylnaltrexone 0.45, bid mg/kg

C[N@+]1(CC2CC2)CC[C@]23c4c5ccc(O)c4O[C@H]2C(=O)CC[C@@]3(O)[C@H]1C5 [methylnaltrexone, N-methylnaltrexone bromide]
Peak plasma level ([1]; 4 subjects with detectable level (one 1.0 mg/kg, three 3.0 mg/kg oral), mean±SD, range 10-26): 17.8 ± 6.6 ng/mL
subjects with undetectable methylnaltrexone in plasma ([1]; of 12 subjects, oral 0.3-3.0 mg/kg): Eight
oral-cecal transit time after methylnaltrexone, at the end of the study ([2]; Subject 1, 0.45 mg/kg iv bid): 90 min
oral-cecal transit time after methylnaltrexone, at the end of the study ([2]; Subject 3, 0.05-0.15 mg/kg iv bid): 60 min
oral-cecal transit time after methylnaltrexone, at the end of the study ([2]; Subject 4, 0.05-0.15 mg/kg iv bid): 60 min
Laxation response ([3]; Subjects 1 and 2, 0.45 mg/kg iv): immediate positive Taxation
Laxation response ([3]; Subjects 3 and 4, 0.05-0.15 mg/kg iv twice daily for 4 consecutive days): immediate laxation response
Stool frequency Methylnaltrexone (per day) ([3]; #1 0.45 mg/kg bid, #2 0.45 mg/kg, #3 and #4 0.05-0.15 mg/kg bid, iv methylnaltrexone 0.45 mg/kg): 1 per day
Stool frequency Methylnaltrexone (per day) ([3]; #1 0.45 mg/kg bid, #2 0.45 mg/kg, #3 and #4 0.05-0.15 mg/kg bid, iv methylnaltrexone 0.05-0.15, bid mg/kg): 2 per day
Stool frequency Methylnaltrexone (per day) ([3]; #1 0.45 mg/kg bid, #2 0.45 mg/kg, #3 and #4 0.05-0.15 mg/kg bid, iv methylnaltrexone 0.05-015, bid mg/kg): 1.3 per day
Stool frequency Methylnaltrexone (per day) ([3]; #1 0.45 mg/kg bid, #2 0.45 mg/kg, #3 and #4 0.05-0.15 mg/kg bid, iv methylnaltrexone 0.45, bid mg/kg): 1.5 per day
stool frequency during the treatment period ([3]; four subjects, iv methylnaltrexone, 1-2 times per week before the study): approximately 1.5 stool per day
Laxation response ([3]; iv methylnaltrexone, #1 0.45 mg/kg bid, #2 0.45 mg/kg, #3 and #4 0.05-0.15 mg/kg bid): Immediate
time to initial plasma levels after oral administration [4]: 5 to 10 min
side effects ([5]; Subject 1, 0.45 mg/kg iv, 7 days of administration): did not experience any significant side effects
abdominal cramping ([5]; Subject 1, 0.45 mg/kg iv, after each injection): mild abdominal cramping
signs of systemic withdrawal (lacrimation, diaphoresis, mydriasis, hallucinations) ([5]; Subject 2, single dose 0.45 mg/kg iv): no signs of systemic withdrawal
abdominal cramping ([5]; Subject 2, single dose 0.45 mg/kg iv over 1 min): severe abdominal cramping
abdominal cramping [5, 8]: mild abdominal cramping
side effects [5, 8]: No significant side effects were observed
Central opioid withdrawal [5, 9]: No
abdominal cramping [5, 9]: Severe
Central opioid withdrawal [5, 10]: No
abdominal cramping [5, 10]: Mild
Central opioid withdrawal [5, 11]: No
abdominal cramping [5, 11]: Mild
Central opioid withdrawal [5, 12]: No
abdominal cramping [5, 12]: Mild
Peak plasma level ([6]; Day 1, 11 subjects, range 30-774): 162 ± 237 ng/mL
percentage of intravenous dose excreted unchanged in urine from 0 to 4 hr ([6]; Day 1, mean±SD, range 9.6-39.9): 23.7±10.5%
Peak plasma level ([6]; Day 2, 11 subjects, range 33-658): 166 ± 177 ng/mL
percentage of intravenous dose excreted unchanged in urine from 0 to 4 hr ([6]; Day 2, mean±SD, range 13.2-73.6): 37.6±17.8%
subjects who had a bowel movement ([7]; oral 0.3 mg/kg): 3 out of 4
time to bowel movement after oral compound ([7]; oral 0.3 mg/kg, range 8-24 hr): 18.0 ± 8.7 h
subjects who had a bowel movement ([7]; oral 1.0 mg/kg): All subjects
time to bowel movement after oral compound ([7]; oral 1.0 mg/kg, range 3-24 hr): 12.3 ± 8.7 h
subjects who had a bowel movement ([7]; oral 3.0 mg/kg): All subjects
time to bowel movement after oral compound ([7]; oral 3.0 mg/kg, range 1.2-10 hr): 5.2 ± 4.5 h
